Laboratory results as given in ChEMBL document CHEMBL1828586 (J Med Chem, 2011).

How the values were obtained:
Type in all cases: functional, cell-based
[1] = system: PPC-1; assay: Anticancer activity against human PPC1 cells after 96 hrs by SRB assay; details: PPC-1, 96 h
[2] = Anticancer activity against mouse B16-F1 cells after 96 hrs by SRB assay; details: B16-F1, 96 h
[3] = system: LNCaP; assay: Anticancer activity against human LNCAP cells after 96 hrs by SRB assay
[4] = system: PC-3; assay: Anticancer activity against human PC3 cells after 96 hrs by SRB assay; details: PC-3, 96 h
[5] = system: A-375; assay: Anticancer activity against human A375 cells after 96 hrs by SRB assay; details: A-375, 96 h
[6] = system: DU-145; assay: Anticancer activity against human DU145 cells after 96 hrs by SRB assay; details: DU-145, 96 h
[7] = Anticancer activity against human WM164 cells after 96 hrs by SRB assay; details: WM164, 96 h

SMILES	IC50 [1] [nM]	IC50 [2] [nM]	IC50 [3] [nM]	IC50 [4] [nM]	IC50 [5] [nM]	IC50 [6] [nM]	IC50 [7] [nM]
COc1cc(C(=O)c2csc(-c3ccc(O)cc3)n2)cc(OC)c1OC	76	110	103	87	100	116	
COc1cc(-c2csc(-c3ccccc3)n2)cc(OC)c1OC	> 10000	> 10000	> 10000	> 10000	> 10000	> 10000	> 10000
COc1cc(Sc2cccc(-c3ccccc3)c2)cc(OC)c1OC	2300	2400	2300	> 10000	1600	> 10000	2000
CO/N=C(/c1cc(OC)c(OC)c(OC)c1)c1csc(-c2ccccc2)n1		3800	> 10000	> 10000	2900	> 10000	3400
COc1cc(C(=O)c2csc(-c3cc4ccccc4[nH]3)n2)cc(OC)c1OC	28	43	28	24	19	32	
COc1cc(C(=O)c2csc(Nc3ccc(C)cc3)n2)cc(OC)c1OC	36		35	38		35	
COc1cc(/C(=C\C#N)c2csc(-c3ccccc3)n2)cc(OC)c1OC	10000	1200	1990	10000	1200	10000	1000
COc1cc(NS(=O)(=O)c2cccc(-c3ccccc3)c2)cc(OC)c1OC	> 10000	> 10000	> 10000	> 10000	> 10000	> 10000	> 10000
COc1cc(C(=O)Nc2csc(-c3ccccc3)n2)cc(OC)c1OC	> 10000	> 30000	> 10000	> 10000	> 30000	> 10000	
COc1cc(/C(=C/C#N)c2csc(-c3ccccc3)n2)cc(OC)c1OC	900	5400	580	890	4600	2280	4900
COc1cc(C(=O)c2csc(-c3ccc(CN(C)C)cc3)n2)cc(OC)c1OC	> 10000	> 10000	1020	> 10000	> 10000	> 10000	
COc1cc(NC(=O)c2csc(-c3ccccc3)n2)cc(OC)c1OC	> 10000	> 30000	> 10000	> 10000	> 30000	> 10000	
COc1cc(C(=O)c2cc(-c3ccccc3)ncn2)cc(OC)c1OC	3700	> 30000	7000	8300	> 30000	6900	
COc1cc(C(=O)c2cnc(-c3ccccc3)s2)cc(OC)c1OC	> 10000	12500	> 10000	> 10000	13600	> 10000	
COc1cc(C(=O)c2cc(-c3ccccc3)n[nH]2)cc(OC)c1OC	84	245	101	101	100	145	
COc1cc(C(=O)c2ccc(-c3ccccc3)o2)cc(OC)c1OC	20	151	23	21	27	35	
COc1cc(C(=O)N2CCC(c3ccccc3)CC2)cc(OC)c1OC	> 20000	> 30000	> 20000	> 20000	> 30000	> 20000	

SMILES	IC50 [1] [nM]	IC50 [2] [nM]	IC50 [3] [nM]	IC50 [4] [nM]	IC50 [5] [nM]	IC50 [6] [nM]	IC50 [7] [nM]
CO/N=C(\c1cc(OC)c(OC)c(OC)c1)c1csc(-c2ccccc2)n1	> 10000	> 10000			> 10000	> 10000	> 10000
COc1cc(C(=C(C)C)c2csc(-c3ccccc3)n2)cc(OC)c1OC	2040	3800	1390	2470	1900	2650	3700
COc1cc(C(=O)c2csc(-c3ccc(CNC(=O)OC(C)(C)C)cc3)n2)cc(OC)c1OC	2700	2900	2600	3100	7900	4300	
COc1cc(/C(=N\O)c2csc(-c3ccccc3)n2)cc(OC)c1OC	> 10000	11400	> 10000	> 10000	7800	> 10000	
CNCc1ccc(-c2nc(C(=O)c3cc(OC)c(OC)c(OC)c3)cs2)cc1	10000	> 10000	1140	> 10000	> 10000	10000	
COc1cc(/C(=N\N)c2csc(-c3ccccc3)n2)cc(OC)c1OC	966	1800	1300	1040	600		
COc1cc(C(=O)[C@@H]2COC(c3ccccc3)=N2)cc(OC)c1OC	1100	6500			500		
COc1cc(C(=O)[C@@H]2CSC(c3ccc(O[Si](C)(C)C(C)(C)C)cc3)=N2)cc(OC)c1OC	246	500	549	183	700	434	
COc1cc(C(=O)c2csc(-c3ccccc3)c2)cc(OC)c1OC	15	72		12	15	26	
COc1cc(C(O)c2csc(-c3ccccc3)n2)cc(OC)c1OC (centres undefined)	> 10000	> 30000	> 10000	> 10000	> 30000	> 10000	
COc1cc(C(=O)c2cccc(-c3ccccc3)c2)cc(OC)c1OC	80	500	52	124	87	171	
COc1cc([S+]([O-])c2cccc(-c3ccccc3)c2)cc(OC)c1OC (centres undefined)	> 10000	> 10000	> 10000	> 10000	> 10000	> 10000	> 10000
COc1cc(S(=O)(=O)c2cccc(-c3ccccc3)c2)cc(OC)c1OC	> 10000	> 10000	> 10000	> 10000	> 10000	> 10000	> 10000
COc1cc(C(=O)c2cc(-c3ccccc3)on2)cc(OC)c1OC	> 10000	> 30000	> 10000	> 10000	> 30000	> 10000	
COc1cc(C(=O)c2coc(-c3ccccc3)n2)cc(OC)c1OC	343	600	331	292	300	292	
COc1cc(/C(=N/O)c2csc(-c3ccccc3)n2)cc(OC)c1OC	144	300	169	120	200	103	
COc1cc(/C(=N/N)c2csc(-c3ccccc3)n2)cc(OC)c1OC	872	2000	1800	1120	900	1210	
